Test results as given in US10894087B2, “Multi-arm polymeric prodrug conjugates of cabazitaxel-based compounds” (Nektar Therapeutics, priority 2010, dated 2021).
Where two headings read alike, the source gives them in different places.

System: H460 non-small cell lung cancer (NSCLC) implants
Settings: for % TGD / MTV (Median Tumor Volume) / Median TTE (Median Time to Endpoint) / TGD (tumor growth delay compared to vehicle) / CR (Number of Complete Regressions) / PR (Number of Partial Regressions) / TFS (Number of Tumor Free Survivors): iv, qwk x 3; for CR (Number of Complete Regressions) / PR (Number of Partial Regressions) / TFS (Number of Tumor Free Survivors): N=10; for Complete regression, i.e., no detectable tumor (number of animals): through day 45, dose not given
Description: Purpose. Studies were conducted to assess the growth inhibitory effects of PEGylated-conjugates of cabazitaxel on H460 non-small cell lung cancer (NSCLC) implants in athymic nu/nu mice.
Experimental plan. These studies were conducted using routine methods and materials that are familiar to those skilled in the art. Briefly, 8 to 12 week old female nu/nu mice were injected subcutaneously in the flank with 1×10^7 H460 tumor cells in 0.2 mL sterile buffer. […] Animals received three intravenous doses of test article at one week intervals beginning on day 1. Cabazitaxel solutions were prepared in D5W containing 5% Tween 80:10% ethanol. PEG-cabazitaxel conjugates were prepared in D5W. The administration volume for all test articles was 10 mL/kg. The test doses were selected to represent the MTD and ½ the MTD for each test compound. The tables list the actual mg/kg for each test article and the corresponding cabazitaxel equivalent calculated based on the weight-percent cabazitaxel content for each PEGylated conjugate.
Animals were weighed on days 1-5, 7, 9, 11, 13 then biweekly until the end of the study. Tumor sizes were measured using calipers biweekly throughout the study and tumor volumes were calculated using the formula for an ellipsoid sphere: L×W^2/2=mm^3, where L and W are the major axis dimensions of the tumor in mm. Additional parameters that were monitored were the number of non-specific deaths, number of partial and complete tumor regressions, number of tumor-free survivors, and the time required for individual animals' tumors to reach 2000 mm^3. The median time for a tumor to reach 2000 mm^3 in the treatment groups (T) and control group (C) was used to calculate of the overall delay in the growth of the median tumor (TGD). Animals were monitored individually until reaching the experimental endpoint: tumor size of 2000 mm^3 or 45 days, whichever came first. […] When the study endpoint was reached, the animals were euthanized.

[1] = 20K conjugate xenograft study, 10 mg/kg cabazitaxel eq.
[2] = 20K conjugate xenograft study, 20 mg/kg cabazitaxel eq.
[3] = 30K and 40K conjugate xenograft study, 6 mg/kg cabazitaxel eq.
[4] = 30K and 40K conjugate xenograft study, 12 mg/kg cabazitaxel eq.
[5] = 30K and 40K conjugate xenograft study, 10 mg/kg cabazitaxel eq.
[6] = 30K and 40K conjugate xenograft study, 20 mg/kg cabazitaxel eq.
[7] = 30K and 40K conjugate xenograft study
[8] = 30K and 40K conjugate xenograft study, 15 mg/kg cabazitaxel eq.
[9] = 30K and 40K conjugate xenograft study, 30 mg/kg cabazitaxel eq.

Row | Substance | % TGD [1] | MTV (Median Tumor Volume) [1] | Median TTE (Median Time to Endpoint) [1] | TGD (tumor growth delay compared to vehicle) [1] | CR (Number of Complete Regressions) [1] | PR (Number of Partial Regressions) [1] | TFS (Number of Tumor Free Survivors) [1] | % TGD [2] | MTV (Median Tumor Volume) [2] | TGD (tumor growth delay compared to vehicle) [2] | CR (Number of Complete Regressions) [2] | PR (Number of Partial Regressions) [2] | TFS (Number of Tumor Free Survivors) [2] | % TGD [5] | Median TTE (Median Time to Endpoint) [5] | TGD (tumor growth delay compared to vehicle) [5] | CR (Number of Complete Regressions) [5] | PR (Number of Partial Regressions) [5] | TFS (Number of Tumor Free Survivors) [5] | Complete regression, i.e., no detectable tumor (number of animals) [7] | other results
1 | 4-ARM-PEG20K-Alaninate-Linked Cabazitaxel Conjugate [4-arm-PEG20K-CM-alanine-Cabazitaxel] | 93% | 908 mm^3 | 35.6 days | 17.1 days | 0 | 0 | 0 | 154% | 1470 mm^3 | 28.5 days | 0 | 0 | 0 |  |  |  |  |  |  |  | 
2 | 4-ARM-PEG20K-Glycinate-Linked Cabazitaxel Conjugate [4-arm-PEG20K-CM-glycine-Cabazitaxel] | 63% | 1200 mm^3 | 30.1 days | 11.6 days | 0 | 0 | 0 | 154% | 1183 mm^3 | 28.5 days | 0 | 4 | 0 |  |  |  |  |  |  |  | 
3 | 4-ARM-PEG30K-Alaninate-Linked Cabazitaxel Conjugate [4-arm-PEG30K-CM-alanine-Cabazitaxel] |  |  |  |  |  |  |  |  |  |  |  |  |  |  |  |  |  |  |  |  | % TGD [3]: 39%; Median TTE (Median Time to Endpoint) [3]: 20.8 days; TGD (tumor growth delay compared to vehicle) [3]: 5.9 days; CR (Number of Complete Regressions) [3]: 0; PR (Number of Partial Regressions) [3]: 0; TFS (Number of Tumor Free Survivors) [3]: 0; % TGD [4]: 158%; MTV (Median Tumor Volume) [4]: 600 mm^3; Median TTE (Median Time to Endpoint) [4]: 38.6 days; TGD (tumor growth delay compared to vehicle) [4]: 23.6 days; CR (Number of Complete Regressions) [4]: 0; PR (Number of Partial Regressions) [4]: 0; TFS (Number of Tumor Free Survivors) [4]: 0
4 | 4-ARM-PEG30K-Glycinate-Linked Cabazitaxel Conjugate [4-arm-PEG30K-CM-glycine-Cabazitaxel] |  |  |  |  |  |  |  |  |  |  |  |  |  | 119% | 32.7 days | 17.8 days | 0 | 1 | 0 | one | MTV (Median Tumor Volume) [5]: 726 mm^3; % TGD [6]: 208%; MTV (Median Tumor Volume) [6]: 478 mm^3; TGD (tumor growth delay compared to vehicle) [6]: 31.1 days; CR (Number of Complete Regressions) [6]: 1; PR (Number of Partial Regressions) [6]: 6; TFS (Number of Tumor Free Survivors) [6]: 1
5 | 4-ARM-PEG40K-Alaninate-Linked Cabazitaxel Conjugate [4-arm-PEG40K-CM-alanine-Cabazitaxel] |  |  |  |  |  |  |  |  |  |  |  |  |  | 101% | 30.1 days | 15.1 days | 0 | 0 | 0 | one | % TGD [6]: 208%; MTV (Median Tumor Volume) [6]: 184 mm^3; TGD (tumor growth delay compared to vehicle) [6]: 31.1 days; CR (Number of Complete Regressions) [6]: 1; PR (Number of Partial Regressions) [6]: 4; TFS (Number of Tumor Free Survivors) [6]: 1
6 | 4-ARM-PEG40K-Glycinate-Linked Cabazitaxel Conjugate [4-arm-PEG40K-CM-glycine-Cabazitaxel] |  |  |  |  |  |  |  |  |  |  |  |  |  |  |  |  |  |  |  | one | % TGD [8]: 146%; MTV (Median Tumor Volume) [8]: 1632 mm^3; Median TTE (Median Time to Endpoint) [8]: 36.8 days; TGD (tumor growth delay compared to vehicle) [8]: 21.9 days; CR (Number of Complete Regressions) [8]: 0; PR (Number of Partial Regressions) [8]: 0; TFS (Number of Tumor Free Survivors) [8]: 0; % TGD [9]: 208%; MTV (Median Tumor Volume) [9]: 32 mm^3; TGD (tumor growth delay compared to vehicle) [9]: 31.1 days; CR (Number of Complete Regressions) [9]: 1; TFS (Number of Tumor Free Survivors) [9]: 1; PR (Number of Partial Regressions) (30K and 40K conjugate xenograft study, 30 mg/kg cabazitaxel eq., 30 mg/kg): 9; PR (Number of Partial Regressions) (30K and 40K conjugate xenograft study, 30 mg/kg cabazitaxel eq., listed as 4-arm-PEG40K-CM-glycine-cabazitaxel, 30 mg/kg): 10
